Measured values taken from patent US4199499A, “Pharmacologically active peptides” (Eli Lilly and Company, priority 1978, dated 1980).

Test system: mouse
Experiment: mouse hot plate test
Format: in vivo
Conditions: 15 minutes after administration, hot plate 52° C.
Procedure: The compounds of this invention are useful as analgesics. […] In this test, a mouse is placed inside an upright acrylic cylinder comprising, as its base, a hot plate surface which is maintained at 52° C. The mouse is given, by subcutaneous injection, a predetermined amount of test compound dissolved or suspended in a suitable carrier, and, 15 minutes after administration of the test compound, the mouse is placed on the hot plate surface. The latencies in seconds until the occurrence of each of two separate phenomena then are recorded. First the latency until the mouse licks its hind paw is measured, and, secondly, the latency until the mouse jumps from the hot plate surface is measured. […] This must occur in a dose range which produces no motor incoordination or incapacitation. The following Table records the results obtained from this test, reflected in terms of increase over saline control. Each data point was determined using ten treated and ten control mice, and each represents the difference in mean response latency between treated and control animals. The mean control latency for the hind paw lick response was 28.4±0.9 seconds determined from eight groups of ten control mice each. The mean control jump latency was 52.4±3.7 seconds for studies run in the a.m. and 75.9±6.0 seconds for studies run in the p.m. as determined from four groups of ten mice each in the a.m. and four groups of ten mice each in the p.m.

CSCCC(C)(CO)NC(=O)[C@H](Cc1ccccc1)NC(=O)CNC(=O)[C@@H](C)NC(=O)[C@@H](N)Cc1ccc(O)cc1 (stereo partly drawn) [C, L-Tyrosyl-D-alanyl-glycyl-L-phenylalanyl-D,L-α-methylmethionine carbinol]
Latency, Increase in Seconds over Control, escape jump (EJ) (dose 0.1 mg/kg subcutaneous): 16.4 s | Latency, Increase in Seconds over Control, hind paw lick (HPL) (dose 0.1 mg/kg subcutaneous): -2.6 s | Latency, Increase in Seconds over Control, escape jump (EJ) (dose 0.3 mg/kg subcutaneous): 47.7 s | Latency, Increase in Seconds over Control, hind paw lick (HPL) (dose 0.3 mg/kg subcutaneous): 1.7 s | Latency, Increase in Seconds over Control, escape jump (EJ) (dose 1 mg/kg subcutaneous): 55.2 s | Latency, Increase in Seconds over Control, hind paw lick (HPL) (dose 1 mg/kg subcutaneous): 8.3 s | Latency, Increase in Seconds over Control, escape jump (EJ) (dose 3 mg/kg subcutaneous): 74.9 s | Latency, Increase in Seconds over Control, hind paw lick (HPL) (dose 3 mg/kg subcutaneous): 11.2 s | Latency, Increase in Seconds over Control, escape jump (EJ) (dose 10 mg/kg subcutaneous): 90.7 s | Latency, Increase in Seconds over Control, hind paw lick (HPL) (dose 10 mg/kg subcutaneous): 18.8 s | Latency, Increase in Seconds over Control, escape jump (EJ) (dose 30 mg/kg subcutaneous): 93.8 s | Latency, Increase in Seconds over Control, hind paw lick (HPL) (dose 30 mg/kg subcutaneous): 10.6 s
